The numbers were not newly measured in patent US11951100B2, “Formulations of RBP4 inhibitors and methods of use” (Belite Bio, LLC, priority 2019, dated 2024), which cites them from elsewhere.

Structures are written as SMILES.

The conditions of this series: sub-population with significant RBP4 lowering; cited from earlier work.

As for `CC1=C(/C=C/C(C)=C/C=C/C(C)=C/C(=O)Nc2ccc(O)cc2)C(C)(C)CCC1` [fenretinide], the lesion growth result is recorded as “slower lesion growth”.
